In paper PMC11855478, “Bicyclic N,S-Acetals Containing Fused Cysteine-Amide System as New Heterocyclic Class Targeting Human Farnesyltransferase (FTase-h)” (International Journal of Molecular Sciences, 2025):

Experiments:
[1] = system: BT-549 (Breast Cancer); assay: NCI one dose, BT-549; assay type: cell-based, human; details: BT-549, 1.00E-5 Molar one dose
Protocol: (§1) 3.4. Cell Proliferation Assay
(§2) Selected compounds were tested on a panel of 60 human cancer cell lines at the National Cancer Institute (NCI), Germantown, MD, USA. The cytotoxicity studies were conducted using a 48 h exposure protocol using the sulfo-rhodamine B assay.

[2] = system: MDA-MB-435 (Melanoma); assay: NCI one dose, MDA-MB-435; assay type: cell-based, human; details: MDA-MB-435, 1.00E-5 Molar one dose
Protocol: as §1, §2

[3] = system: RXF 393 (Renal Cancer); assay: NCI one dose, RXF 393; assay type: cell-based, human; details: RXF 393, 1.00E-5 Molar one dose
Protocol: as §1, §2

[4] = system: MDA-MB-468 breast cancer cells; assay: NCI one dose, MDA-MB-468; assay type: cell-based, human; details: MDA-MB-468, 1.00E-5 Molar one dose
Protocol: as §1, §2

[5] = system: EKVX (Non-Small Cell Lung Cancer); assay: NCI one dose, EKVX; assay type: cell-based, human; details: 1.00E-5 Molar one dose
Protocol: as §1, §2

[6] = system: SF-295 (CNS Cancer); assay: NCI one dose, SF-295; assay type: cell-based, human; details: SF-295, 1.00E-5 Molar one dose
Protocol: as §1, §2

[7] = system: U251 (CNS Cancer); assay: NCI one dose, U251; assay type: cell-based, human; details: U251, 1.00E-5 Molar one dose
Protocol: as §1, §2

[8] = system: NCI-H460 (Non-Small Cell Lung Cancer); assay: NCI one dose, NCI-H460; assay type: cell-based, human; details: NCI-H460, 1.00E-5 Molar one dose
Protocol: as §1, §2

[9] = system: SK-MEL-5 (Melanoma); assay: NCI one dose, SK-MEL-5; assay type: cell-based, human; details: SK-MEL-5, 1.00E-5 Molar one dose
Protocol: as §1, §2

[10] = system: HS 578T (Breast Cancer); assay: NCI one dose, HS 578T; assay type: cell-based, human; details: 1.00E-5 Molar one dose
Protocol: as §1, §2

[11] = system: SR (Leukemia); assay: NCI one dose, SR; assay type: cell-based, human; details: 1.00E-5 Molar one dose
Protocol: as §1, §2

[12] = system: MDA-MB-231/ATCC (Breast Cancer); assay: NCI one dose, MDA-MB-231/ATCC; assay type: cell-based, human; details: 1.00E-5 Molar one dose
Protocol: as §1, §2

[13] = system: UACC-257 melanoma cells; assay: NCI one dose, UACC-257; assay type: cell-based, human; details: UACC-257, 1.00E-5 Molar one dose
Protocol: as §1, §2

[14] = system: NCI-H322M (Non-Small Cell Lung Cancer); assay: NCI one dose, NCI-H322M; assay type: cell-based, human; details: 1.00E-5 Molar one dose
Protocol: as §1, §2

[15] = system: SF-268 (CNS Cancer); assay: NCI one dose, SF-268; assay type: cell-based, human; details: SF-268, 1.00E-5 Molar one dose
Protocol: as §1, §2

[16] = system: TK-10 (Renal Cancer); assay: NCI one dose, TK-10; assay type: cell-based, human; details: TK-10, 1.00E-5 Molar one dose
Protocol: as §1, §2

[17] = system: T-47D (Breast Cancer); assay: NCI one dose, T-47D; assay type: cell-based, human; details: 1.00E-5 Molar one dose
Protocol: as §1, §2

[18] = system: CAKI-1 (Renal Cancer); assay: NCI one dose, CAKI-1; assay type: cell-based, human; details: CAKI-1, 1.00E-5 Molar one dose
Protocol: as §1, §2

[19] = system: SNB-19 (CNS Cancer); assay: NCI one dose, SNB-19; assay type: cell-based, human; details: SNB-19, 1.00E-5 Molar one dose
Protocol: as §1, §2

[20] = system: MCF7 (Breast Cancer); assay: NCI one dose, MCF7; assay type: cell-based, human; details: MCF7, 1.00E-5 Molar one dose
Protocol: as §1, §2

[21] = system: HOP-62 (Non-Small Cell Lung Cancer); assay: NCI one dose, HOP-62; assay type: cell-based, human; details: HOP-62, 1.00E-5 Molar one dose
Protocol: as §1, §2

[22] = system: UACC-62 (Melanoma); assay: NCI one dose, UACC-62; assay type: cell-based, human; details: UACC-62, 1.00E-5 Molar one dose
Protocol: as §1, §2

[23] = system: LOX IMVI (Melanoma); assay: NCI one dose, LOX IMVI; assay type: cell-based, human; details: 1.00E-5 Molar one dose
Protocol: as §1, §2

[24] = system: SNB-75 (CNS Cancer); assay: NCI one dose, SNB-75; assay type: cell-based, human; details: SNB-75, 1.00E-5 Molar one dose
Protocol: as §1, §2

[25] = system: OVCAR-4 (Ovarian Cancer); assay: NCI one dose, OVCAR-4; assay type: cell-based, human; details: OVCAR-4, 1.00E-5 Molar one dose
Protocol: as §1, §2

[26] = system: panel of 60 human cancer cell lines; assay: NCI 60 cell panel one dose screen (whole panel); assay type: cell-based; design: Delta (One Dose Mean Graph): unit not given here; details: 1.00E-5 Molar one dose; for Range (One Dose Mean Graph): in % (unit assumed); for Mean Growth Percent: mean over tested cell lines
Protocol: as §1
Selected compounds were tested on a panel of 60 human cancer cell lines at the National Cancer Institute (NCI), Germantown, MD, USA. The cytotoxicity studies were conducted using a 48 h exposure protocol using the sulfo-rhodamine B assay. […]
X. NCI One Dose Mean Graph of sulfides 4a(A -J) and 4b(A-J)
The entire series of sulfides regrouping twenty synthesized FTI-candidates (4aA-J, 4bA-J) were selected by the National Cancer Institute (NCI) for evaluation of their antiproliferative activity against 60 cancer cell lines (see the followings twenty pages for full evaluation reports). […]
inhibiting 36% of the NCI-H522 cells. Such difference between IC50 on human FTase in the nanomolar range and IC50 on cancer cell growth in the micromolar range is characteristic to potent FTIs and was reported previously on different series of compounds (see for example ref erence in the references part […]
Of interest, none of the tested compounds at a high single dose (10 µM) in the full NCI 60 cell panel has shown a cytotoxic profile. […]
inhibitory potential on FTase raise good hope for further investigation of these series as agents fighting

[27] = system: OVCAR-8 (Ovarian Cancer); assay: NCI one dose, OVCAR-8; assay type: cell-based, human; details: OVCAR-8, 1.00E-5 Molar one dose
Protocol: as §1, §2

[28] = system: SF-539 (CNS Cancer); assay: NCI one dose, SF-539; assay type: cell-based, human; details: SF-539, 1.00E-5 Molar one dose
Protocol: as §1, §2

[29] = system: SK-OV-3 (Ovarian Cancer); assay: NCI one dose, SK-OV-3; assay type: cell-based, human; details: SK-OV-3, 1.00E-5 Molar one dose
Protocol: as §1, §2

[30] = system: MOLT-4 (Leukemia); assay: NCI one dose, MOLT-4; assay type: cell-based, human; details: MOLT-4, 1.00E-5 Molar one dose
Protocol: as §1, §2

[31] = system: HCT-15 (Colon Cancer); assay: NCI one dose, HCT-15; assay type: cell-based, human; details: HCT-15, 1.00E-5 Molar one dose
Protocol: as §1, §2

SMILES | Growth Percent [1] [%] | Growth Percent [2] [%] | Growth Percent [3] [%] | Growth Percent [4] [%] | Growth Percent [5] [%] | Growth Percent [6] [%] | Growth Percent [7] [%] | Growth Percent [9] [%] | Growth Percent [10] [%] | Growth Percent [12] [%] | Growth Percent [13] [%] | Growth Percent [14] [%] | Growth Percent [15] [%] | Growth Percent [16] [%] | Growth Percent [18] [%] | Growth Percent [19] [%] | Growth Percent [20] [%] | Growth Percent [21] [%] | Growth Percent [22] [%] | Growth Percent [23] [%] | other results
COc1ccccc1CNC(=O)[C@@H]1CS[C@@]2(C)c3ccccc3C(=O)N12 [4bG] | 109.63 | 103.94 | 105.28 | 93.22 | 102.57 | 99.22 | 94.53 | 98.16 | 95.65 | 98.66 | 74.15 | 100.27 | 105.82 | 91.89 | 90.92 | 102.87 | 92.90 | 98.30 | 95.39 | 98.70 | Growth Percent [8]: 107.31%; Growth Percent [11]: 82.72%; Growth Percent [17]: 98.35%; Growth Percent [24]: 96.63%; Growth Percent [25]: 95.75%; Delta (One Dose Mean Graph) [26]: 28.52; Range (One Dose Mean Graph) [26]: 40.41; Mean Growth Percent [26]: 98.55%; Growth Percent [27]: 95.21%; Growth Percent [28]: 109.96%; Growth Percent [29]: 99.44%; Growth Percent [30]: 96.78%; Growth Percent [31]: 98.16%
O=C(NCc1ccccc1)[C@@H]1CS[C@H]2c3ccccc3C(=O)N12 [4aA] | 93.57 | 106.84 | 114.31 | 105.86 | 105.39 | 99.96 | 97.80 | 114.63 | 107.68 | 100.79 | 96.60 | 102.34 | 90.56 | 96.56 | 94.90 | 96.70 | 87.71 | 97.31 | 97.72 | 97.27 | Growth Percent [24]: 84.04%; Growth Percent [25]: 111.39%; Delta (One Dose Mean Graph) [26]: 20.43; Range (One Dose Mean Graph) [26]: 35.31; Mean Growth Percent [26]: 99.75%; Growth Percent [27]: 101.18%; Growth Percent [28]: 102.43%; Growth Percent [29]: 102.04%; Growth Percent [30]: 95.69%; Growth Percent [31]: 103.68%
O=C(NCc1ccc(Cl)cc1Cl)[C@@H]1CS[C@H]2c3ccccc3C(=O)N12 [4aH] | 97.76 | 100.39 | 105.25 | 91.86 | 100.24 | 95.60 | 95.21 | 109.91 | 113.78 | 110.76 | 96.52 | 91.63 | 98.11 | 103.48 | 101.46 | 97.06 | 94.95 | 97.52 | 85.33 | 100.51 | Growth Percent [24]: 89.63%; Growth Percent [25]: 106.54%; Delta (One Dose Mean Graph) [26]: 24.18; Range (One Dose Mean Graph) [26]: 40.81; Mean Growth Percent [26]: 97.15%; Growth Percent [27]: 97.57%; Growth Percent [28]: 106.56%; Growth Percent [29]: 103.37%; Growth Percent [30]: 79.54%; Growth Percent [31]: 102.53%
